# Data published in patent US20170217976A1, “6-(AMINO ACID)-MORPHINAN DERIVATIVES IN COMBINATION WITH PERMEATION […] FOR USE AS AN ORALLY, […], TRA[…] NASALLY AD[…]” (C[…], priority 2014, published 2017).
# Read-outs that look alike come from different tables or passages of the source.
# What was measured:
# DOR = biological target: T1, DOR (Rattus norvegicus, UniProt P33533); assay: Opioid receptor binding, DOR, rat brain membranes
# T1 construct: from tissue
# [1] = biological target: T2, human MOP expressed in CHO cells (Homo sapiens, UniProt P35372); assay: [35S]GTPγS binding, antagonism at MOR (Ke against DAMGO); type: biochemical; conditions: for Kb: Table 1-6, antagonist Ke measured against DAMGO
# T2 construct: expressed in transfected cells; host or cells: CHO cells (per the unit's head)
# MOR = biological target: T3, MOR (Rattus norvegicus, UniProt P33535); assay: Opioid receptor binding, MOR, rat brain membranes
# T3 construct: from tissue
# KOR = biological target: T4, KOR (Cavia porcellus, UniProt P41144); assay: Opioid receptor binding, KOR, guinea pig brain membranes
# T4 construct: from tissue
# [2] = pH-metric determination of pKa, logP and logD in octanol/water (PCA200/Cheqsol); type: physicochemical
# Protocol: All titrations were performed in 0.15M KCl solution under argon gas. The pKa was determined by the shape of the titration curve and partition coefficients were determined by the shift in titration curve of pKa in the presence of octanol. The analysis of pH-metric data was performed by RefinementPro software (version 2.0, Sirius, Sussex, UK).
# human MOR = biological target: T5, human MOR (Homo sapiens, UniProt P35372); assay: biochemical; type: biochemical; conditions: for Emax: read-out: [35S]GTPγS binding, MOR % stim.
# T5 construct: expressed in transfected cells; host or cells: CHO cells
# Protocol: A number of compounds were evaluated for agonist potency and efficacy at the MOR using the [^35S]GTPγS functional assay in CHO cells expressing human MOR receptors.
# [3] = system: mouse vas deferens preparation; assay: Mouse vas deferens bioassay; conditions: read-out: IC50, agonist potency in mouse vas deferens
# Protocol: The mouse vas deferens bioassay was performed as described in: M. Spetea et al., Eur. J. Pharmacol. 2004, 483, 301-308
# [4] = Permeation study through rat small intestine in Ussing type diffusion chambers; type: in vitro ADME; conditions: apical to basolateral, pH 7.5, no permeation enhancer, three hours incubation
# Protocol: Ussing type diffusion chambers with a surface area of 0.64 cm^2 were utilized. Rat small intestine was excised immediately after sacrificing the animal and mounted in the chamber. The donor and acceptor compartments of the chamber were filled with 1.0 ml of the freshly prepared incubation medium containing either 40 mM HEPES buffer (HEPES=2-(4-(2-hydroxyethyl)-1-piperazinyl)-ethane sulfonic acid) adjusted to pH 7.5 or 6.5 or 50 mM sodium acetate buffer adjusted to pH 5.5. […] The samples were centrifuged at 7,200 g for 5 minutes and the supernatant was analyzed via HPLC. Cumulative corrections were performed for the previously removed samples to determine the total amount permeated.
# rats = assay: Tail-flick test in rats after oral administration; type: in vivo, rat; conditions: Rattus norvegicus, po
# Protocol: The rat tail-flick test was performed as described in: S. Furst et. al. J. Pharmacol. Exp. Ther. 2005, 312, 609-618
# [5] = Binding Ki DOR, Table 1-6, rat brain membranes
# [6] = Binding Ki DOR, Table 2-6, rat brain membranes
# [7] = Binding Ki MOR, Table 1-6, rat brain membranes
# [8] = Binding Ki MOR, Table 2-6, rat brain membranes
# [9] = Binding Ki KOR, Table 1-6, guinea pig brain membranes
# [10] = Binding Ki KOR, Table 2-6, guinea pig brain membranes
# T5 sequence (P35372 whole entry): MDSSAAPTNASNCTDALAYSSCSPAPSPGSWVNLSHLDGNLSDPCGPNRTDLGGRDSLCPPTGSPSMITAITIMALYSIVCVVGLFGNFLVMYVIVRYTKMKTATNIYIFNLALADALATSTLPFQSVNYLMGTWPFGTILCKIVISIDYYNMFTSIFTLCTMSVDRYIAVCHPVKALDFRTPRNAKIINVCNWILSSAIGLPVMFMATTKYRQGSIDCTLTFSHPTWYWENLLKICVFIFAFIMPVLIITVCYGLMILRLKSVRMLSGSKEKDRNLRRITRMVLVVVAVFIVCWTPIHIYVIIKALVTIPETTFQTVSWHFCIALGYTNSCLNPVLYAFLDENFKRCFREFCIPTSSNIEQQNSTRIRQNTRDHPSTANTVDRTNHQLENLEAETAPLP
# T2 sequence (P35372 whole entry): as above
# T3 sequence (P33535 whole entry): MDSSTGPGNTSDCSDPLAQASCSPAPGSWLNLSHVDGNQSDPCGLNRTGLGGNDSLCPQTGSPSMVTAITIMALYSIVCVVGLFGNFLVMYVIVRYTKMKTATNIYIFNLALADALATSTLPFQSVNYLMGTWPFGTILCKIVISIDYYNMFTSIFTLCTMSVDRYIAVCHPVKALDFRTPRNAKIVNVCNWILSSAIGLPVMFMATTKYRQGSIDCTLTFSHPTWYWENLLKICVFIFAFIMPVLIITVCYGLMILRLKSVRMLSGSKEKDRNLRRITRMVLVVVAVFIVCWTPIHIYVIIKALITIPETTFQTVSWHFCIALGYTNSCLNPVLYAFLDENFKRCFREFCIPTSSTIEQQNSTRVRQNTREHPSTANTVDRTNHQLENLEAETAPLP
# T1 sequence (P33533 whole entry): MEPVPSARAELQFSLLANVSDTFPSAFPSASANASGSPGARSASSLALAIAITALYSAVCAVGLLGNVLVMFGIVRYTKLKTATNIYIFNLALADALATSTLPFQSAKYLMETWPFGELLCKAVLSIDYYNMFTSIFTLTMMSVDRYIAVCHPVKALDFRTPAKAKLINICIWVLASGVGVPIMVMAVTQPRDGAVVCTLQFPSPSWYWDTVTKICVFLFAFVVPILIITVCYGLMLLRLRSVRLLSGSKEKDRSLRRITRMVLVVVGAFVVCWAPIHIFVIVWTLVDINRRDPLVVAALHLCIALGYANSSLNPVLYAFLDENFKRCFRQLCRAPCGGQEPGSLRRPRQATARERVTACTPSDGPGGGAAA
# T4 sequence (P41144 whole entry): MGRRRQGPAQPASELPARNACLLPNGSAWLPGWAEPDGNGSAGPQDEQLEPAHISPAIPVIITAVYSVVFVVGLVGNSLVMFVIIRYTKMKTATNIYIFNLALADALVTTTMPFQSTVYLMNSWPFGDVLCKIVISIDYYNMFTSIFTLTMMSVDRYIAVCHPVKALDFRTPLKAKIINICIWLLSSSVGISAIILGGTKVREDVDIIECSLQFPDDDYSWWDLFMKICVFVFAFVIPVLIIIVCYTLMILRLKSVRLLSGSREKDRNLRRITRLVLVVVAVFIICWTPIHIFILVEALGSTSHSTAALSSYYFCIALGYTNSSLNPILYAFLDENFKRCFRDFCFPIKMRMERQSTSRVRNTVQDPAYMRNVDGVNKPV
SMILES,Ki (DOR; [5]),Ki (DOR; [6]),EC50 [1],"Kb ([1]; [35S]GTPγS binding, MOR Ke)",Ki (MOR; [7]),Ki (MOR; [8]),Ki (KOR; [9]),Ki (KOR; [10]),further results
CO[C@@]12CC[C@H](NCC(=O)O)[C@@H]3Oc4c(O)ccc5c4[C@@]31CCN(CC1CC1)[C@@H]2C5 [Compound 61],5.15 nM,5.15 nM,> 10000 nM,0.63 nM,0.68 nM,0.68 nM,4.65 nM,4.65 nM,–
CO[C@@]12CC[C@H](NCCCC(=O)O)[C@@H]3Oc4c(O)ccc5c4[C@@]31CCN(C)[C@@H]2C5 [Compound 15],–,–,–,–,–,–,–,–,"logP ([2]; octanol/water, 25° C.): -0.36; EC50 (human MOR): 1.9 nM; Emax (human MOR): 113%"
CO[C@@]12CC[C@@H](N[C@@H](CC(=O)O)C(=O)O)[C@@H]3Oc4c(O)ccc5c4[C@@]31CCN(C)[C@@H]2C5 [Compound 45],–,–,–,–,–,–,–,–,"logP ([2]; octanol/water, 25° C.): -2.2"
"O=C(O)C(Cc1ccccc1)NC1CCC2(O)C3Cc4ccc(O)c5c4C2(CCN3CC2CC2)C1O5 (single isomer, unassigned) [Compound 60]",2.79 nM,2.79 nM,–,0.24 nM,1.83 nM,1.83 nM,8.99 nM,8.99 nM,"EC50 ([1]; read-out: [35S]GTPγS binding, MOR EC50, Table 1-6, stimulation of [35S]GTPγS binding): > 10000 nM"
CO[C@@]12CC[C@H](NCCC(=O)O)[C@@H]3Oc4c(O)ccc5c4[C@@]31CCN(CC1CC1)[C@@H]2C5 [Compound 63],6.25 nM,6.25 nM,> 10000 nM,0.27 nM,1.35 nM,1.35 nM,7.81 nM,7.81 nM,–
"O=C(O)C(Cc1ccccc1)NC1CCC2(O)C3Cc4ccc(O)c5c4C2(CCN3CC2CC2)C1O5 (single isomer, unassigned) [Compound 59]",3.53 nM,3.53 nM,> 10000 nM,0.25 nM,1.41 nM,1.41 nM,2.65 nM,2.65 nM,–
"CCO.CO[C@@]12CC[C@@H](NCC(=O)O)[C@@H]3Oc4c(O)ccc5c4[C@@]31CCN(C)[C@@H]2C5.Cl.Cl.O [HS731, 2-[(4,5α-EPOXY-3-HYDROXY-14β-METHOXY-17-METHYLMORPHINAN-6β-YL)AMINO]ACETIC ACID DIHYDROCHLORIDE HYDRATE ETHANOLATE]",–,–,–,–,–,–,–,–,"IC50 ([3]; Mus musculus): 7 nM; permeation through rat intestinal mucosa [4]: 11%; ED50 (rats; 0.5 h, read-out: ED50 (p.o., mg/kg) 30 min, 30 min): 21 mg/kg; ED50 (rats; read-out: ED50 (p.o., mg/kg) 1 h, 1 h): 5.52 mg/kg; ED50 (rats; read-out: ED50 (p.o., mg/kg) 2 h, 2 h): 6.78 mg/kg; ED50 (rats; read-out: ED50 (p.o., mg/kg) 3 h, 3 h): 6.33 mg/kg; pKa ([2]; […] KCl solution (aqueous titration), 25° C., 0.15M KCl): 2.4; logP ([2]; octanol/water, 25° C.): -0.78; logD ([2]; octanol/water, pH 7.4, 25° C.): -2.06; EC50 (human MOR): 3.88 nM; Emax (human MOR): 107%"
CO[C@@]12CC[C@@H](NCCCC(=O)O)[C@@H]3Oc4c(O)ccc5c4[C@@]31CCN(CC1CC1)[C@@H]2C5 [Compound 66],10.2 nM,10.2 nM,> 10000 nM,–,3.36 nM,3.36 nM,16.8 nM,16.8 nM,"Kb ([1]; read-out: [35S]GTPγS binding, MOR Ke): 1.06 nM"
"CCO[C@@]12CCC(=O)[C@@H]3Oc4c(O)ccc5c4[C@@]31CCN(CC1CC1)[C@@H]2C5 [Compound 14-OEt-NTX, 14-O-Ethylnaltrexone, reference compound]",4.13 nM,4.13 nM,> 10000 nM,0.31 nM,0.35 nM,0.35 nM,0.93 nM,0.93 nM,–
"CO[C@@]12CCC(=O)[C@@H]3Oc4c(O)ccc5c4[C@@]31CCN(C)[C@@H]2C5 [Compound 14-OMO, 14-O-methyloxymorphone, reference compound]",–,–,–,–,–,–,–,–,"Ki (DOR; Table 1-4, rat brain membranes, read-out: Binding Ki DOR): 4.8 nM; Ki (DOR; in vitro binding assay, rat brain membranes, read-out: Binding Ki (nM) DOR): 4.8 nM; IC50 [3]: 7.76 nM; Ki (MOR; Table 1-4, rat brain membranes, read-out: Binding Ki MOR): 0.1 nM; Ki (MOR; in vitro binding assay, rat brain membranes, read-out: Binding Ki (nM) MOR): 0.1 nM; EC50 (human MOR; Table 1-4, human MOP expressed in CHO cells, read-out: [35S]GTPγS binding, MOR EC50): 1.17 nM; [35S]GTPγS binding, MOR % stim. (human MOR; Table 1-4, measured against DAMGO): 127%"
CO[C@@]12CC[C@H](N[C@@H](CO)C(=O)O)[C@@H]3Oc4c(O)ccc5c4[C@@]31CCN(C)[C@@H]2C5 [Compound 36],–,–,–,–,–,–,–,–,"Ki (DOR; Binding Ki (nM) DOR, in vitro binding assay, rat brain membranes): 5.32 nM; Ki (DOR; Binding Ki DOR, Table 1-4, rat brain membranes): 5.32 nM; Ki (MOR; Binding Ki (nM) MOR, in vitro binding assay, rat brain membranes): 2.21 nM; Ki (MOR; Binding Ki MOR, Table 1-4, rat brain membranes): 2.21 nM; Ki (KOR; Binding Ki (nM) KOR, in vitro binding assay, guinea pig brain membranes): 196 nM; Ki (KOR; Binding Ki KOR, Table 1-4, guinea pig brain membranes): 196 nM; EC50 (human MOR): 1.21 nM; Emax (human MOR): 96%"
